In patent US9260425B2 (Genetech, Inc., priority 2011, dated 2016) one finds Ki data, which are given here for 13 molecules.

The test deals with Pim-1 (Homo sapiens (Human), UniProt P11309). As to the kind of experiment: Pim kinase binding activity assay (Example 901), PIM-1 enzyme, Caliper microfluidic peptide phosphorylation. The class given is biochemical. The conditions noted are these: 20 pM PIM-1, 10 μM ATP, 1 μM FAM-peptide, 90 minutes at room temperature. The method, boiled down: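 PIM-1 at 20 pM phosphorylated 1 μM FAM-labelled Pim peptide with 10 μM ATP in HEPES pH 7.2, MgCl2, Tween 20 and DTT for 90 min at room temperature. EDTA stopped the reaction, and product and substrate were resolved by microfluidic electrophoresis (ex 488/em 530 nm). Ki was derived from substrate conversion.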
Pim-1, sequence (P11309 whole entry): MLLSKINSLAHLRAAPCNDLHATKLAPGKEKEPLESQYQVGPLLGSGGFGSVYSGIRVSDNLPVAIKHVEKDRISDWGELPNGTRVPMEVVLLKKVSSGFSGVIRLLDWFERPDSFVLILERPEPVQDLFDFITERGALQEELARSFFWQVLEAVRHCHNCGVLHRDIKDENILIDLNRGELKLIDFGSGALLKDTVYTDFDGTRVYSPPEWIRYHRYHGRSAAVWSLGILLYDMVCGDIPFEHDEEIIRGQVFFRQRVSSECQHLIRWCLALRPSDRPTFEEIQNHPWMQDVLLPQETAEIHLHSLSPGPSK
As to `C=C(C)c1ccc(-c2n[nH]c3cnc(-c4cnn(CC)c4)cc23)nc1N1CCC[C@H](N)C1` [Example 427, (S)-1-(6-(5-(1-ethyl-1H-pyrazol-4-yl)-1H-pyrazolo[3,4-c]pyridin-3-yl)-3-(prop-1-en-2-yl)pyridin-2-yl)piperidin-3-amine], the Ki came out at 0.016 nM.
As for `Cc1ccc(-c2n[nH]c3cnc(-c4cnn(C)c4)cc23)nc1N1CCN(CCS(C)(=O)=O)C(C)(C)C1` [Example 428, 3-(6-(3,3-dimethyl-4-(2-(methylsulfonyl)ethyl)piperazin-1-yl)-5-methylpyridin-2-yl)-5-(1-methyl-1H-pyrazol-4-yl)-1H-pyrazolo[3,4-c]pyridine], the figure is 0.112 nM; as for `CCc1ccc(-c2n[nH]c3cnc(-c4cnn(C)c4)cc23)nc1N1CCC[C@H](N)C1` [Example 429, (S)-1-(3-ethyl-6-(5-(1-methyl-1H-pyrazol-4-yl)-1H-pyrazolo[3,4-c]pyridin-3-yl)pyridin-2-yl)piperidin-3-amine], 0.022 nM.
As for `CCn1cc(-c2cc3c(-c4ccc(C)c(N5CCC[C@H](N)C5)n4)n[nH]c3cn2)cn1` [Example 430, (S)-1-(6-(5-(1-ethyl-1H-pyrazol-4-yl)-1H-pyrazolo[3,4-c]pyridin-3-yl)-3-methylpyridin-2-yl)piperidin-3-amine], the figure is 0.027 nM; as for `C=Cc1ccc(-c2n[nH]c3cnc(-c4cnn(CC)c4)cc23)nc1N1CCC[C@H](N)C1` [Example 431, (S)-1-(6-(5-(1-ethyl-1H-pyrazol-4-yl)-1H-pyrazolo[3,4-c]pyridin-3-yl)-3-vinylpyridin-2-yl)piperidin-3-amine], 0.023 nM; as for `CCn1cc(-c2cc3c(-c4ccc(C)c(N5CCNCC5)n4)n[nH]c3cn2)cn1` [Example 432, 5-(1-ethyl-1H-pyrazol-4-yl)-3-(5-methyl-6-(piperazin-1-yl)pyridin-2-yl)-1H-pyrazolo[3,4-c]pyridine], 0.055 nM.
As for `Cc1ccc(-c2n[nH]c3cnc(-c4cnn(C)c4)cc23)nc1N1CCC[C@H](N)C1` [Example 433, (S)-1-(3-methyl-6-(5-(1-methyl-1H-pyrazol-4-yl)-1H-pyrazolo[3,4-c]pyridin-3-yl)pyridin-2-yl)piperidin-3-amine], the figure is 0.013 nM.
`OC1CN(c2cccc(-c3n[nH]c4cnc(-c5cccnc5)cc34)n2)CCC1F` (stereo not shown) [Example 435, 4-fluoro-1-(6-(5-(pyridin-3-yl)-1H-pyrazolo[3,4-c]pyridin-3-yl)pyridin-2-yl)piperidin-3-ol] showed a Ki of 0.089 nM.
`COc1cncc(-c2cc3c(-c4cccc(N5CCNCC5)n4)n[nH]c3cn2)c1` [Example 436, 5-(5-methoxypyridin-3-yl)-3-(6-(piperazin-1-yl)pyridin-2-yl)-1H-pyrazolo[3,4-c]pyridine] showed a Ki of 0.021 nM.
As for `CNc1cccc(-c2n[nH]c3cnc(-c4cccnc4)cc23)n1` [Example 437, N-methyl-6-(5-(pyridin-3-yl)-1H-pyrazolo[3,4-c]pyridin-3-yl)pyridin-2-amine], the figure is 0.409 nM.
As for `CCc1cncc(-c2cc3c(-c4cccc(N5CCNCC5)n4)n[nH]c3cn2)c1` [Example 438, 5-(5-ethylpyridin-3-yl)-3-(6-(piperazin-1-yl)pyridin-2-yl)-1H-pyrazolo[3,4-c]pyridine], the figure is 0.004 nM; as for `Cn1cc(-c2cc3c(-c4ccnc(C5CCNCC5)n4)n[nH]c3cn2)cn1` [Example 439, 5-(1-methyl-1H-pyrazol-4-yl)-3-(2-(piperidin-4-yl)pyrimidin-4-yl)-1H-pyrazolo[3,4-c]pyridine], 0.571 nM.
As for `Cc1ccc(-c2n[nH]c3cnc(-c4cnn(C)c4)cc23)nc1N1CCN(C)CC1` [Example 440, 5-(1-methyl-1H-pyrazol-4-yl)-3-(5-methyl-6-(4-methylpiperazin-1-yl)pyridin-2-yl)-1H-pyrazolo[3,4-c]pyridine], the figure is 0.029 nM.
